In patent US10072001B2, “Tank-binding kinase inhibitor compounds” (Gilead Sciences, Inc., priority 2014, dated 2018):

Assays:
IKKε = IKKε (Homo sapiens (Human), UniProt Q14164); assay: TR-FRET kinase assay, IKKε; assay type: biochemical; conditions: full length recombinant IKKε 0.3 nM, 2x Km ATP, 1 μM peptide, 240 min at 25° C.; geometric mean of minimum four determinations
Description: Biological Assay for TBK1 and IKKs:

TBK1 = TBK1 (Homo sapiens (Human), UniProt Q9UHD2); assay: TR-FRET kinase assay, TBK1; conditions: read-out: TBK1-IC50; full length recombinant TBK1 2.5 nM, 2x Km ATP, 1 μM peptide, 240 min at 25° C.; geometric mean of minimum four determinations
Chain of TBK1 (Q9UHD2 whole entry): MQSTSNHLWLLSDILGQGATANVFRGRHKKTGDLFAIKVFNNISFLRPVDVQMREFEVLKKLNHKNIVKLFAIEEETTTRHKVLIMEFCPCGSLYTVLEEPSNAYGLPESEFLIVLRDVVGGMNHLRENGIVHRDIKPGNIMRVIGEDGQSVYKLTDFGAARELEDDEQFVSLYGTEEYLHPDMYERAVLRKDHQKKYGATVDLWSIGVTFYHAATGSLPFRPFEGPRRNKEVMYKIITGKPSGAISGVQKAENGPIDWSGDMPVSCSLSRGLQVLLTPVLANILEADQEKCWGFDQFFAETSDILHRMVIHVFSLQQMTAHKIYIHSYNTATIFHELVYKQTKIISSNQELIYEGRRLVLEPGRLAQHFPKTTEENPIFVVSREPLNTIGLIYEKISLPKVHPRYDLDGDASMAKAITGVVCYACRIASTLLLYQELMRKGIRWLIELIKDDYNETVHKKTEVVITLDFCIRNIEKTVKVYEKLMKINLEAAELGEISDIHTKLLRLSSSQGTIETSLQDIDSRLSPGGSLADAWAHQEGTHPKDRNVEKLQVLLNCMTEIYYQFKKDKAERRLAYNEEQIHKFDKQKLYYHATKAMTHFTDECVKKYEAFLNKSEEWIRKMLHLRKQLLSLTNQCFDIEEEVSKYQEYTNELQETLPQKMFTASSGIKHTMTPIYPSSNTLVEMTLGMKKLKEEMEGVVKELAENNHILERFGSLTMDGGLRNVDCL
Description: Enzymatic activity of IKKε and TBK1 was measured using a homogeneous time resolved fluorescence resonance energy transfer (TR-FRET) assay that monitors enzyme dependent phosphorylation of a biotinylated serine/threonine peptide substrate. […] TBK1 and IKKs were expressed and purified as full length recombinant proteins. Detection reagents for the assay were purchased from Cisbio. […] After an assay reaction time of 240 minutes at 25° C., reactions were terminated with EDTA.
Amount of phosphorylated peptide was determined by the addition of 125 nM streptavidin XL665 and europium cryptate labeled anti-phospho monoclonal antibody and the resulting TR-FRET signal was recorded on an Envision plate reader (Ex: 340 nm; Em: 615/665 nm; 100 μs delay and 200 μs read window). […] All IC50 values represent geometric mean values of a minimum of four determinations.

Chain of IKKε (Q14164 whole entry): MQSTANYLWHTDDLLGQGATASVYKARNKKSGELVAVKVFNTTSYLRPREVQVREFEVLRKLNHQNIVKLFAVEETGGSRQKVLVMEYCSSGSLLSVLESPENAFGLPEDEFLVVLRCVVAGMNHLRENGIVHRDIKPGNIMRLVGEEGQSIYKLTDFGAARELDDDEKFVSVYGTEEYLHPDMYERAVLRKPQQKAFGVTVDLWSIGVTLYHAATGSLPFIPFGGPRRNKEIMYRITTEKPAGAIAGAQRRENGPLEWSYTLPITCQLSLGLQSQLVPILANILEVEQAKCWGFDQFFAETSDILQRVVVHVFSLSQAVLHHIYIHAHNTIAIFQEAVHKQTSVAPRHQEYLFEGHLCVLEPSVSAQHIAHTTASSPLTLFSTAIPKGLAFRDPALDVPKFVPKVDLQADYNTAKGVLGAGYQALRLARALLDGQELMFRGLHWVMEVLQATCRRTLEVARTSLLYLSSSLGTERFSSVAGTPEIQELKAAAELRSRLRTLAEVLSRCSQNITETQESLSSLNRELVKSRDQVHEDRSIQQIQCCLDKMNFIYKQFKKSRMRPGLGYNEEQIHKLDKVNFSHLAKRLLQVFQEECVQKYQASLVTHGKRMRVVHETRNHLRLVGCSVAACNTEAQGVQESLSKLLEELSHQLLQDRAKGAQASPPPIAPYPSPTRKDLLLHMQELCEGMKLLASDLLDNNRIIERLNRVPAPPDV

IC50 (IKKε) [nM] | IC50 (TBK1) [nM] | Structure (SMILES)
> 1000 | 9.34 | N#Cc1cc(-c2ccnc3[nH]c(-c4ccc(N5CCOCC5)cc4)cc23)ccc1NC(=O)C1CC1 [Example 32, N-(2-cyano-4-(2-(4-morpholinophenyl)-1H-pyrrolo[2,3-b]pyridin-4-yl)phenyl)cyclopropanecarboxamide]
17.5 | 4.05 | N#Cc1cc(-c2c(F)cnc3[nH]c(-c4ccc(N5CCOCC5)cc4)cc23)ccc1OC1CCOCC1 [Example 47, 5-(5-fluoro-2-(4-morpholinophenyl)-1H-pyrrolo[2,3-b]pyridin-4-yl)-2-((tetrahydro-2H-pyran-4-yl)oxy)benzonitrile]
> 1000 | 43.5 | N#Cc1cc(-c2ccnc3[nH]c(-c4ccc(N5CCOCC5)cc4)nc23)ccc1OCC1CC1 [Example 301, 2-(cyclopropylmethoxy)-5-(2-(4-morpholinophenyl)-3H-imidazo[4,5-b]pyridin-7-yl)benzonitrile]
20.8 | 6.86 | N#Cc1cc(-c2ccnc3[nH]c(-c4ccc(N5CCOCC5)cc4)cc23)ccc1O[C@@H]1CCNC1 [Example 14, (R)-5-(2-(4-morpholinophenyl)-1H-pyrrolo[2,3-b]pyridin-4-yl)-2-(pyrrolidin-3-yloxy)benzonitrile]
> 78 | 7.05 | N#Cc1cc(-c2ccnc3[nH]c(-c4ccc(N5CCOCC5)cc4)cc23)ccc1N1CCCC1 [Example 49, 5-(2-(4-morpholinophenyl)-1H-pyrrolo[2,3-b]pyridin-4-yl)-2-(pyrrolidin-1-yl)benzonitrile]
47.5 | 9.78 | COc1cc(N2CCOCC2)ccc1-c1cc2c(-c3ccc(OC4CCOCC4)c(C#N)c3)ncnc2[nH]1 [Example 137, 5-(6-(2-methoxy-4-morpholinophenyl)-7H-pyrrolo[2,3-d]pyrimidin-4-yl)-2-((tetrahydro-2H-pyran-4-yl)oxy)benzonitrile]
– | 0.91 | N#Cc1cc(-c2ncnc3[nH]c(-c4ccc(N5CCN(CC(F)F)CC5)cc4)cc23)ccc1OC1CCN(C(=O)CO)CC1 [Example 264, 5-(6-(4-(4-(2,2-difluoroethyl)piperazin-1-yl)phenyl)-7H-pyrrolo[2,3-d]pyrimidin-4-yl)-2-((1-(2-hydroxyacetyl)piperidin-4-yl)oxy)benzonitrile]
14 | 3.8 | N#Cc1cc(-c2ncnc3[nH]c(-c4ccc(C5CCN(CC(F)(F)F)CC5)cc4)nc23)ccc1OC1CCN(C(=O)CO)CC1 [Example 257, 2-((1-(2-hydroxyacetyl)piperidin-4-yl)oxy)-5-(8-(4-(1-(2,2,2-trifluoroethyl)piperidin-4-yl)phenyl)-9H-purin-6-yl)benzonitrile]
132 | 39.6 | N#Cc1cc(-c2ccnc3[nH]c(-c4ccc(N5CCOCC5)cc4)cc23)ccc1O[C@H]1CCNC1 [Example 22, (S)-5-(2-(4-morpholinophenyl)-1H-pyrrolo[2,3-b]pyridin-4-yl)-2-(pyrrolidin-3-yloxy)benzonitrile]
18.6 | 9.25 | N#Cc1nc(-c2ccnc3[nH]c(-c4ccc(N5CCOCC5)cc4)nc23)ccc1OC1CCOCC1 [Example 304, 6-(2-(4-morpholinophenyl)-3H-imidazo[4,5-b]pyridin-7-yl)-3-((tetrahydro-2H-pyran-4-yl)oxy)picolinonitrile]
1000 | 1000 | CC(C)(C)OC(=O)N1CCC(Oc2ccc(-c3ncnc4[nH]c(-c5ccc(N6CCOCC6)c(F)c5)nc34)cc2C#N)CC1 [Example 245, tert-butyl 4-(2-cyano-4-(8-(3-fluoro-4-morpholinophenyl)-9H-purin-6-yl)phenoxy)piperidine-1-carboxylate]
1000 | 2.15 | N#Cc1cc(-c2ncnc3[nH]c(-c4ccc(N5CCOCC5)cc4)cc23)ccc1N1CC(O)C1 [Example 199, 2-(3-hydroxyazetidin-1-yl)-5-(6-(4-morpholinophenyl)-7H-pyrrolo[2,3-d]pyrimidin-4-yl)benzonitrile]
564 | 298 | N#Cc1cc(-c2ncnc3[nH]c(Nc4cccc(N5CCOCC5)c4)nc23)ccc1OC1CCOCC1 [Example 194, 5-(8-((3-morpholinophenyl)amino)-9H-purin-6-yl)-2-((tetrahydro-2H-pyran-4-yl)oxy)benzonitrile]
22.5 | 10.6 | CC(C)(O)c1cccc(-c2cc3c(-c4ccc(OC5CCOCC5)c(C#N)c4)ccnc3[nH]2)c1 [Example 68, 5-(2-(3-(2-hydroxypropan-2-yl)phenyl)-1H-pyrrolo[2,3-b]pyridin-4-yl)-2-((tetrahydro-2H-pyran-4-yl)oxy)benzonitrile]
> 1000 | 14.5 | COc1cc(C#N)cc(-c2ccnc3[nH]c(-c4ccc(N5CCOCC5)cc4)cc23)c1 [Example 33, 3-methoxy-5-(2-(4-morpholinophenyl)-1H-pyrrolo[2,3-b]pyridin-4-yl)benzonitrile]
> 1000 | 28.2 | N#Cc1cccc(-c2ccnc3[nH]c(-c4ccc(N5CCOCC5)cc4)cc23)c1 [Example 79, 3-(2-(4-morpholinophenyl)-1H-pyrrolo[2,3-b]pyridin-4-yl)benzonitrile]
1.88 | 1.16 | CN1CCN(C(=O)c2ccc(-c3cc4c(-c5ccc(OC6CCOCC6)c(C#N)c5)ncnc4[nH]3)cc2)CC1 [Example 187, 5-(6-(4-(4-methylpiperazine-1-carbonyl)phenyl)-7H-pyrrolo[2,3-d]pyrimidin-4-yl)-2-((tetrahydro-2H-pyran-4-yl)oxy)benzonitrile]
17 | 11.8 | N#Cc1cc(-c2ccnc3[nH]c(-c4cccnc4)cc23)ccc1OC1CCOCC1 [Example 7, 5-(2-(pyridin-3-yl)-1H-pyrrolo[2,3-b]pyridin-4-yl)-2-((tetrahydro-2H-pyran-4-yl)oxy)benzonitrile]
4.4 | 1.28 | Cc1cc(N2CCOCC2)ccc1-c1cc2c(-c3ccc(OC4CCN(C(=O)CO)CC4)c(C#N)c3)ncnc2[nH]1 [Example 121, 2-((1-(2-hydroxyacetyl)piperidin-4-yl)oxy)-5-(6-(2-methyl-4-morpholinophenyl)-7H-pyrrolo[2,3-d]pyrimidin-4-yl)benzonitrile]
132 | 10.5 | N#Cc1cc(-c2ccnc3[nH]c(-c4ccc(N5CCOCC5)cc4)cc23)ccc1CN1CCOCC1 [Example 70, 2-(morpholinomethyl)-5-(2-(4-morpholinophenyl)-1H-pyrrolo[2,3-b]pyridin-4-yl)benzonitrile]
2230 | – | N#Cc1cc(-c2ncnc3[nH]ccc23)ccc1OC1CCOCC1 [Example 108, 5-(7H-pyrrolo[2,3-d]pyrimidin-4-yl)-2-((tetrahydro-2H-pyran-4-yl)oxy)benzonitrile]
– | 1 | COc1cc(-c2cc3c(-c4ccc(OC5CCOCC5)c(C#N)c4)ncnc3[nH]2)ccc1N1CCOCC1 [Example 136, 5-(6-(3-methoxy-4-morpholinophenyl)-7H-pyrrolo[2,3-d]pyrimidin-4-yl)-2-((tetrahydro-2H-pyran-4-yl)oxy)benzonitrile]
5.84 | – | N#Cc1cc(-c2ncnc3[nH]c(C4=CCC5(CC4)OCCO5)cc23)ccc1OC1CCN(C(=O)CO)CC1 [Example 175, 5-(6-(1,4-dioxaspiro[4.5]dec-7-en-8-yl)-7H-pyrrolo[2,3-d]pyrimidin-4-yl)-2-((1-(2-hydroxyacetyl)piperidin-4-yl)oxy)benzonitrile]
1000 | – | COC(=O)c1ccc(-c2cc3c(-c4ccc(OC5CCOCC5)c(C#N)c4)ccnc3[nH]2)cc1 [Example 238, Methyl 4-(4-(3-cyano-4-((tetrahydro-2H-pyran-4-yl)oxy)phenyl)-1H-pyrrolo[2,3-b]pyridin-2-yl)benzoate]
– | 52.8 | Cc1ncc(-c2nc3c(-c4ccc(OC5CCOCC5)c(C#N)c4)ncnc3[nH]2)s1 [Example 231, 5-(8-(2-methylthiazol-5-yl)-9H-purin-6-yl)-2-((tetrahydro-2H-pyran-4-yl)oxy)benzonitrile]
– | 2.84 | N#Cc1cc(-c2cc3c(-c4ccc(OC5CCOCC5)c(C#N)c4)ncnc3[nH]2)ccc1OC1CCOCC1 [Example 223, 5,5′-(7H-pyrrolo[2,3-d]pyrimidine-4,6-diyl)bis(2-((tetrahydro-2H-pyran-4-yl)oxy)benzonitrile)]
2.98 | – | N#CCC(=O)N1CCN(c2ccc(-c3cc4c(-c5ccc(OC6CCOCC6)c(C#N)c5)ccnc4[nH]3)cc2)CC1 [Example 57, 5-(2-(4-(4-(2-cyanoacetyl)piperazin-1-yl)phenyl)-1H-pyrrolo[2,3-b]pyridin-4-yl)-2-((tetrahydro-2H-pyran-4-yl)oxy)benzonitrile]
– | 3.26 | CC(C)(O)c1ccc(-c2cc3c(-c4ccc(OC5CCN(C(=O)CO)CC5)c(C#N)c4)ncnc3[nH]2)cn1 [Example 132, 2-((1-(2-hydroxyacetyl)piperidin-4-yl)oxy)-5-(6-(6-(2-hydroxypropan-2-yl)pyridin-3-yl)-7H-pyrrolo[2,3-d]pyrimidin-4-yl)benzonitrile]
– | 52.8 | N#Cc1cc(-c2ccnc3[nH]c(C#CC4CCOCC4)cc23)ccc1OC1CCOCC1 [Example 35, 5-(2-((tetrahydro-2H-pyran-4-yl)ethynyl)-1H-pyrrolo[2,3-b]pyridin-4-yl)-2-((tetrahydro-2H-pyran-4-yl)oxy)benzonitrile]
– | 4.39 | N#Cc1cc(-c2ncnc3[nH]c(-c4ccc(N5CCOCC5)nc4)cc23)ccc1OC1CCOCC1 [Example 155, 5-(6-(6-morpholinopyridin-3-yl)-7H-pyrrolo[2,3-d]pyrimidin-4-yl)-2-((tetrahydro-2H-pyran-4-yl)oxy)benzonitrile]

Structure (SMILES) | IC50 (IKKε) [nM] | IC50 (TBK1) [nM]
N#Cc1cc(-c2ccnc3[nH]c(-c4ccc(N5CC6(COC6)C5)cc4)cc23)ccc1OC1CCOCC1 [Example 46, 5-(2-(4-(2-oxa-6-azaspiro[3.3]heptan-6-yl)phenyl)-1H-pyrrolo[2,3-b]pyridin-4-yl)-2-((tetrahydro-2H-pyran-4-yl)oxy)benzonitrile] | 13 | –
